{"source": "patent US12594292B2", "about": "“Antiviral prodrugs, intermediate-and long-acting formulations and methods” (priority 2022, dated 2026)", "key": {"[1]": {"test_system": "SARS-CoV-2 isolate USA-WA1/2020", "assay": "SARS-CoV-2 infection in Calu-3 cells, qRT-PCR (Example 7)", "type": "cell-based"}, "[2]": {"test_system": "USA WA-01 strain of SARS CoV-2", "assay": "Anti-coronavirus activity in Vero E6 cells, qPCR of spike RNA (Example 2)", "type": "cell-based", "experimental": "Ten thousand Vero E6 cells were seeded in 100 microliters of culture medium in 96 well plates. The following day serial two-fold dilutions of antiviral compounds or the DMSO-containing vehicle were added to each well. The USA WA-01 strain of SARS CoV-2 was added to each well at a multiplicity of infection of 0.1 thirty minutes later. Cells were incubated for 48 hours, washed twice in PBS and lysed with TRIzol. RNA was extracted using Directzol micro RNA columns. RNA was made into cDNA and assayed for the SARS CoV-2 spike protein and for a housekeeping gene (RPLPO) RNA by qPCR. Data represents the average of duplicate wells. Cellular cytotoxicity was also measured in VERO E6 cells. […] Cytotoxicity (CC50) was assessed using a commercially available MTT assay."}, "SARS-CoV-2 [3]": {"test_system": "SARS-CoV-2", "assay": "SARS-CoV-2 infection assay in Calu-3 cells, nucleocapsid immunofluorescence (Example 6)", "settings": "MOI 0.01, 44 hour"}, "[4]": {"test_system": "SARS-CoV-2 isolate USA-WA1/2020", "assay": "SARS-CoV-2 infection in PSC-human lung cells, qRT-PCR (Example 7)", "type": "cell-based"}, "[5]": {"test_system": "SARS-CoV-2 isolate USA-WA1/2020", "assay": "SARS-CoV-2 infection in Vero E6 cells, qRT-PCR of Spike RNA (Example 3)", "type": "cell-based"}, "Hep-2 cells": {"test_system": "Hep-2 cells", "assay": "Cell viability assay for the RSV table (CC50)", "type": "cell-based"}, "SARS-CoV-2 [6]": {"test_system": "SARS-CoV-2", "assay": "SARS-CoV-2 infection assay in Huh7.5 cells, nucleocapsid immunofluorescence (Example 6)", "type": "cell-based", "settings": "MOI 0.1, 48 hours"}, "[7]": {"test_system": "SARS-CoV-2 isolate USA-WA1/2020", "assay": "SARS-CoV-2 infection in Huh7.5 cells, qRT-PCR (Example 7)", "type": "cell-based"}, "Human Coronavirus 229E": {"test_system": "Human Coronavirus 229E", "assay": "Human Coronavirus 229E infected MRC-5 cells, CPE by MTT (Example 8)", "type": "cell-based", "settings": "229E in MRC-5 cells, 72 hours"}, "Huh7.5 cells": {"test_system": "Huh7.5 cells", "assay": "Cell viability assay CellTiter-Glo, Huh7.5 cells (Example 7)"}, "[8]": {"test_system": "SARS-CoV-2 isolate USA-WA1/2020", "assay": "SARS-CoV-2 infection in Vero E6 cells, qRT-PCR (Example 7)", "type": "cell-based"}, "Calu-3 cells": {"test_system": "Calu-3 cells", "assay": "Cytotoxicity in Calu-3 cells, nuclei count or CellTiter-Glo (Example 6)", "settings": "for select compounds up to 100 μM by CellTiter-Glo", "protocol": "After which an equal volume of CellTiter-Glo reagent (Cat. #G7570, Promega, Madison, WI) was added, mixed and luminescence recorded on a Veritas Microplate Luminometer (Turner BioSystems) according to manufacturer recommendations."}, "Caco-2 cells": {"test_system": "Caco-2 cells", "assay": "Cell viability assay CellTiter-Glo, Caco-2 cells (Example 7)", "settings": "Caco-2 cells, CellTiter-Glo"}, "SRV A2 strain of RSV": {"test_system": "SRV A2 strain of RSV", "assay": "RSV infection in Hep-2 cells, CPE reduction", "type": "cell-based, respiratory syncytial virus", "settings": "RSV A2 in Hep-2 cells, 72 to 96 hours", "experimental": "Methods: The SRV A2 strain of RSV was obtained from the ATCC. Ten thousand Hep-2 cells were seeded into each well of a 96-well plate in EMEM with 10% fetal bovine serum and 1% penicillin and streptomycin. Each well was inoculated with 100 TCID50 of virus. Two hours later wells were washed once with medium and serial four-fold dilutions of candidate antiviral drugs were added."}, "[9]": {"settings": "Vero E6 cells, MOI 0.1, 48 hours"}, "[10]": {"settings": "Vero E6 cells, MOI 0.01, 48 hours, mean±SD"}, "[11]": {"settings": "based on the EC50 values, Vero E6"}}, "data": [{"smiles": "CCCCCCCCCCCCCCCCCCOC[C@H](COP(=O)(O)OC[C@H]1O[C@@](C#N)(c2ccc3c(N)ncnn23)[C@H](O)[C@@H]1O)OCc1ccccc1", "note": "[Compound 15d, 1-O-octadecyl-2-O-benzyl-sn-glyceryl-phospho-RVn]", "values": [{"measurement": "CC50", "setting": "MRC-5 cells", "result": "43.1 ± 18.9", "unit": "µM"}, {"measurement": "Selectivity", "setting": "[1]; CC50/EC50, Calu-3 cells", "result": 327}, {"measurement": "EC90", "setting": "[1]; Calu-3 cells, MOI 0.01, 48 hours", "result": 0.33, "unit": "µM"}, {"measurement": "EC50", "setting": "[1]; Calu-3 cells, MOI 0.01, 48 hours, listed as ODBG-P-RVn", "result": 0.3, "unit": "µM"}, {"measurement": "Selectivity Index", "setting": "[2]; CC50/EC50, Vero E6", "result": ">238"}, {"measurement": "EC50", "setting": "[2]; [9]", "result": 0.21, "unit": "µM"}, {"measurement": "EC90", "setting": "[2]; [9]", "result": 0.56, "unit": "µM"}, {"measurement": "EC50", "setting": "SARS-CoV-2 [3]", "result": "0.164 ± 0.02", "unit": "µM"}, {"measurement": "EC90", "setting": "SARS-CoV-2 [3]", "result": "0.536 ± 0.138", "unit": "µM"}, {"measurement": "Selectivity", "setting": "[4]; CC50/EC50, PSC-human lung cells", "result": 410}, {"measurement": "EC90", "setting": "[4]; PSC-human lung cells, MOI 0.01, 48 hours", "result": 0.26, "unit": "µM"}, {"measurement": "Selectivity", "setting": "[5]; CC50/EC50, Vero E6", "result": 240}, {"measurement": "EC50", "setting": "[5]; [10]", "result": "0.19 ± 0.023", "unit": "µM"}, {"measurement": "EC90", "setting": "[5]; [10]", "result": "0.56 ± 0.0002", "unit": "µM"}, {"measurement": "times more active than RDV", "setting": "[5]; [11]", "result": 24}, {"measurement": "times more active than RVn", "setting": "[5]; [11]", "result": 8.9}, {"measurement": "CC50", "setting": "Hep-2 cells", "result": 14.7, "unit": "µM"}, {"measurement": "EC50", "setting": "SARS-CoV-2 [6]", "result": 0.138, "unit": "µM"}, {"measurement": "EC90", "setting": "SARS-CoV-2 [6]", "result": 0.377, "unit": "µM"}, {"measurement": "Selectivity", "setting": "[7]; CC50/EC50, Huh7.5 cells", "result": 449}, {"measurement": "EC90", "setting": "[7]; Huh7.5 cells, MOI 0.01, 48 hours, qRT-PCR (Example 7)", "result": 0.15, "unit": "µM"}, {"measurement": "EC50", "setting": "[7]; Huh7.5 cells, MOI 0.01, 48 hours, qRT-PCR (Example 7), listed as ODBG-P-RVn", "result": 0.14, "unit": "µM"}, {"measurement": "EC50", "setting": "Human Coronavirus 229E", "result": 0.15, "unit": "µM"}, {"measurement": "CC50", "setting": "Huh7.5 cells", "result": 62.9, "unit": "µM"}, {"measurement": "Selectivity", "setting": "[8]; CC50/EC50, Vero E6 cells", "result": 699}, {"measurement": "EC50", "setting": "[8]; Vero E6 cells, MOI 0.01, 48 hours", "result": 0.14, "unit": "µM"}, {"measurement": "EC90", "setting": "[8]; Vero E6 cells, MOI 0.01, 48 hours, listed as ODBG-P-RVn, 15d", "result": 0.16, "unit": "µM"}, {"measurement": "CC50", "setting": "Calu-3 cells", "result": "> 20", "unit": "µM"}, {"measurement": "CC50", "setting": "Caco-2 cells", "result": 88.4, "unit": "µM"}, {"measurement": "EC50", "setting": "SRV A2 strain of RSV", "result": 0.01, "unit": "µM"}, {"measurement": "EC90", "setting": "SRV A2 strain of RSV", "result": 0.019, "unit": "µM"}]}]}
